Measurements taken from article PMC4603705, “A bioinspired peptide scaffold with high antibiotic activity and low in vivo toxicity” (Scientific Reports, 2015).
≈ marks a conversion by molar mass, not a printed value. Read-outs that look alike come from different tables or passages of the source. Bridge positions count the residues as written; N and C are the ends. Square brackets hold non-standard residues; d marks the D form. Peptide text beside a SMILES is read from it. * marks the point of attachment. Decanoyl = CCCCCCCCCC(=O)*; Nonanoyl = CCCCCCCCC(=O)*; Dab = NCC[C@H](N)C(=O)O

Experiments:
[1] = system: P. aeruginosa ATTC 9027; assay type: cell-based, Pseudomonas aeruginosa; conditions: for MIC P. aeruginosa: ATTC 9027; for MIC P. a.: Supplementary Table S1, P. aeruginosa
Description: (§1) MICs were measured after 18–20 h of incubation in sterile 96-well plates (Corning Costar 3598 microtiter plates) in Mueller Hinton Broth (MHB) culture medium, (Difco, USA), according to well known in vitro protocols. Bacterial strains in Table 1 were: P. aeruginosa ATTC 9027, E. coli ATTC 8739, S. aureus ATTC 6538, and E. faecalis ATTC 29212. MICs shown in table 4 were performed by Mary Conrad at Cubist Pharmaceuticals (Lexington, MA) in non-binding surface plates.

[2] = system: E. coli ATTC 8739; assay type: cell-based, Escherichia coli; conditions: for MIC E. coli: ATTC 8739; for MIC E. c.: Supplementary Table S1, E. coli
Description: as §1

[3] = system: S. aureus ATTC 6538; assay: microbe, parasite or virus in culture; assay type: cell-based, Staphylococcus aureus; conditions: for MIC S. aureus: ATTC 6538; for MIC S. a.: Supplementary Table S1, S. aureus
Description: as §1

| Compound | MIC S. a. [3] | MIC P. a. [1] | MIC E. c. [2] | other results |
| --- | --- | --- | --- | --- |
| CCCCCCCCC(=O)N[C@@H](CCN)C(=O)N[C@H](C(=O)N[C@@H](CCN)C(=O)N[C@H]1CSSC[C@@H](C(N)=O)NC(=O)[C@H](CCN)NC(=O)[C@H](CCN)NC(=O)[C@H](CC(C)C)NC(=O)[C@@H](Cc2ccccc2)NC(=O)[C@H](CCN)NC1=O)[C@@H](C)O [Analog 1, nonanoyl-Dab-Thr-Dab-Cys-Dab-Phe-Leu-Dab-Dab-Cys] (Nonanoyl-[Dab]T[Dab]C[Dab][dF]L[Dab][Dab]C-NH2; disulfide 4-10) |  |  |  | MIC P. aeruginosa [1]: 8 µg/mL (≈ 6.54 µM); MIC E. coli [2]: 4 µg/mL (≈ 3.27 µM) |
| CCCCCCCCC(=O)N[C@@H](CCCNC(=N)N)C(=O)N[C@H](C(=O)N[C@@H](CCN)C(=O)N[C@H]1CSSC[C@@H](C(N)=O)NC(=O)[C@H](CCN)NC(=O)[C@H](CCN)NC(=O)[C@H](CC(C)C)NC(=O)[C@@H](Cc2ccccc2)NC(=O)[C@H](CCN)NC1=O)[C@@H](C)O [Analog 2, nonanoyl-Arg-Thr-Dab-Cys-Dab-Phe-Leu-Dab-Dab-Cys] (Nonanoyl-RT[Dab]C[Dab][dF]L[Dab][Dab]C-NH2; disulfide 4-10) |  |  |  | MIC S. aureus [3]: >32 µg/mL; MIC P. aeruginosa [1]: 8 µg/mL (≈ 6.25 µM); MIC E. coli [2]: 8 µg/mL (≈ 6.25 µM) |
| CCCCCCCCC(=O)N[C@@H](CCN)C(=O)N[C@H](C(=O)N[C@@H](CCCNC(=N)N)C(=O)N[C@H]1CSSC[C@@H](C(N)=O)NC(=O)[C@H](CCN)NC(=O)[C@H](CCN)NC(=O)[C@H](CC(C)C)NC(=O)[C@@H](Cc2ccccc2)NC(=O)[C@H](CCN)NC1=O)[C@@H](C)O [Analog 3, nonanoyl-Dab-Thr-Arg-Cys-Dab-Phe-Leu-Dab-Dab-Cys] (Nonanoyl-[Dab]TRC[Dab][dF]L[Dab][Dab]C-NH2; disulfide 4-10) |  |  |  | MIC S. aureus [3]: >32 µg/mL; MIC P. aeruginosa [1]: 4 µg/mL (≈ 3.13 µM); MIC E. coli [2]: 8 µg/mL (≈ 6.25 µM) |
| CCCCCCCCC(=O)N[C@@H](CCN)C(=O)N[C@H](C(=O)N[C@@H](CCN)C(=O)N[C@H]1CSSC[C@@H](C(N)=O)NC(=O)[C@H](CCN)NC(=O)[C@H](CCCNC(=N)N)NC(=O)[C@H](CC(C)C)NC(=O)[C@@H](Cc2ccccc2)NC(=O)[C@H](CCN)NC1=O)[C@@H](C)O [Analog 4, nonanoyl-Dab-Thr-Dab-Cys-Dab-Phe-Leu-Arg-Dab-Cys] (Nonanoyl-[Dab]T[Dab]C[Dab][dF]LR[Dab]C-NH2; disulfide 4-10) |  |  |  | MIC S. aureus [3]: >32 µg/mL; MIC P. aeruginosa [1]: 2 to 4 µg/mL; MIC E. coli [2]: 8 µg/mL (≈ 6.25 µM) |
| CCCCCCCCC(=O)N[C@@H](CCN)C(=O)N[C@H](C(=O)N[C@@H](CCCNC(=N)N)C(=O)N[C@H]1CSSC[C@@H](C(N)=O)NC(=O)[C@H](CCN)NC(=O)[C@H](CCCNC(=N)N)NC(=O)[C@H](CC(C)C)NC(=O)[C@@H](Cc2ccccc2)NC(=O)[C@H](CCN)NC1=O)[C@@H](C)O [Analog 6, nonanoyl-Dab-Thr-Arg-Cys-Dab-Phe-Leu-Arg-Dab-Cys] (Nonanoyl-[Dab]TRC[Dab][dF]LR[Dab]C-NH2; disulfide 4-10) |  |  |  | MIC P. aeruginosa [1]: 8 µg/mL (≈ 5.99 µM); MIC E. coli [2]: 8 µg/mL (≈ 5.99 µM) |
| CCCCCCCCC(=O)N[C@@H](CCCNC(=N)N)C(=O)N[C@H](C(=O)N[C@@H](CCCNC(=N)N)C(=O)N[C@H]1CSSC[C@@H](C(N)=O)NC(=O)[C@H](CCCNC(=N)N)NC(=O)[C@H](CCCNC(=N)N)NC(=O)[C@H](CC(C)C)NC(=O)[C@@H](Cc2ccccc2)NC(=O)[C@H](CCN)NC1=O)[C@@H](C)O [Analog 10, nonanoyl-Arg-Thr-Arg-Cys-Dab-Phe-Leu-Arg-Arg-Cys] (Nonanoyl-RTRC[Dab][dF]LRRC-NH2; disulfide 4-10) |  |  |  | MIC S. aureus [3]: 32 µg/mL (≈ 22.1 µM); MIC P. aeruginosa [1]: 16 µg/mL (≈ 11.1 µM); MIC E. coli [2]: 32 µg/mL (≈ 22.1 µM) |
| CCCCCCCCC(=O)N[C@@H](CCCNC(=N)N)C(=O)N[C@H](C(=O)N[C@@H](CCN)C(=O)N[C@H]1CSSC[C@H](C(N)=O)NC(=O)[C@H](CCN)NC(=O)[C@H](CCCNC(=N)N)NC(=O)[C@H](CC(C)C)NC(=O)[C@@H](Cc2ccccc2)NC(=O)[C@H](CCN)NC1=O)[C@@H](C)O [Analog 13, nonanoyl-Arg-Thr-Dab-Cys-Dab-Phe-Leu-Arg-Dab-Cys] (Nonanoyl-RT[Dab]C[Dab][dF]LR[Dab][dC]-NH2; disulfide 4-10) |  |  |  | MIC S. aureus [3]: 16 µg/mL (≈ 12 µM); MIC P. aeruginosa [1]: 8 µg/mL (≈ 5.99 µM); MIC E. coli [2]: 4 µg/mL (≈ 2.99 µM) |
| CCCCCCCCCC(=O)N[C@@H](CCCNC(=N)N)C(=O)N[C@H](C(=O)N[C@@H](CCN)C(=O)N[C@H]1CSSC[C@@H](C(N)=O)NC(=O)[C@H](CCN)NC(=O)[C@H](CCCNC(=N)N)NC(=O)[C@H](CC(C)C)NC(=O)[C@@H](Cc2ccccc2)NC(=O)[C@H](CCN)NC1=O)[C@@H](C)O [Analog 36, decanoyl-Arg-Thr-Dab-Cys-Dab-Phe-Leu-Arg-Dab-Cys] (Decanoyl-RT[Dab]C[Dab][dF]LR[Dab]C-NH2; disulfide 4-10) |  |  |  | MIC S. aureus [3]: 16 µg/mL (≈ 11.9 µM); MIC P. aeruginosa [1]: 8 µg/mL (≈ 5.93 µM); MIC E. coli [2]: 8 µg/mL (≈ 5.93 µM) |
| CCCCCCCCCC(=O)N[C@@H](CCN)C(=O)N[C@H](C(=O)N[C@@H](CCN)C(=O)N[C@H]1CSSC[C@H](C(N)=O)NC(=O)[C@H](CCN)NC(=O)[C@H](CCN)NC(=O)[C@H](CC(C)C)NC(=O)[C@@H](Cc2ccccc2)NC(=O)[C@H](CCN)NC1=O)[C@@H](C)O [Analog 37, decanoyl -Dab-Thr-Dab-Cys-Dab-Phe-Leu-Dab-Dab-Cys] (Decanoyl-[Dab]T[Dab]C[Dab][dF]L[Dab][Dab][dC]-NH2; disulfide 4-10) |  |  |  | MIC S. aureus [3]: 8 µg/mL (≈ 6.46 µM); MIC P. aeruginosa [1]: 4 µg/mL (≈ 3.23 µM); MIC E. coli [2]: 2 µg/mL (≈ 1.62 µM) |
| C9-Arg(NO2)-Thr-Dab-Cys-Dab-Phe-Leu-Arg(NO2)-Dab-Cys [Analog 16] | > 32 µg/mL |  |  |  |
| C9-Arg-Thr-Arg-Cys-Arg-Phe-Leu-Arg-Dab-Cys (RTRCRFLR; not fully specified; C9 acyl; Dab-Cys C-terminal; printed: Arg-Thr-Arg-Cys-Arg-Phe-Leu-Arg-) [Analog 11] | 16 µg/mL | 128 µg/mL | 16 µg/mL |  |
| C9-Arg-Thr-Arg-Cys-Dab-Phe-Leu-Dab-Dab-Cys [Analog 7] | 32 µg/mL | 32 µg/mL | 32 µg/mL |  |
| C9-Arg-Thr-Arg-Cys-Dab-Phe-Met-Arg-Dab-Cys [Analog 22] | 32 µg/mL | 16 µg/mL | 16 µg/mL |  |
| C9-Arg-Thr-Dab-Cys-Arg-Phe-Leu-Arg-Dab-Cys [Analog 9] | 16 µg/mL | 128 µg/mL | 16 µg/mL |  |
| C9-Arg-Thr-Dab-Cys-Dab-Gly-Gly-Arg-Dab-Cys [Analog 24] | > 128 µg/mL | > 128 µg/mL | > 128 µg/mL |  |
| C9-Arg-Thr-Dab-Cys-Dab-Gly-Leu-Arg-Dab-Cys [Analog 25] | > 128 µg/mL | > 128 µg/mL | > 128 µg/mL |  |
| C9-Arg-Thr-Dab-Cys-Dab-Leu-Leu-Arg-Dab-Cys [Analog 29] | 32 µg/mL | 16 µg/mL | 32 µg/mL |  |

| Compound | MIC S. a. [3] | MIC P. a. [1] | MIC E. c. [2] | other results |
| --- | --- | --- | --- | --- |
| C9-Arg-Thr-Dab-Cys-Dab-Leu-Thr-Arg-Dab-Cys [Analog 30] | > 128 µg/mL | 32 µg/mL | 32 µg/mL |  |
| C9-Arg-Thr-Dab-Cys-Dab-Phe-Gly-Arg-Dab-Cys [Analog 26] | 128 µg/mL | > 128 µg/mL | 64 µg/mL |  |
| C9-Arg-Thr-Dab-Cys-Dab-Phe-Leu-Arg-Dab-Cys [Analog 17] |  |  |  | MIC P. a. ([1]; listed as 17): 16 µg/mL |
| C9-Arg-Thr-Dab-Cys-Dab-Phe-Leu-Arg-Dab-Cys [Analog 23] | 32 µg/mL |  | 64 µg/mL | MIC P. a. ([1]; listed as 23): 128 µg/mL |
| C9-Arg-Thr-Dab-Cys-Dab-Phe-Met-Arg-Dab-Cys [Analog 21] | > 32 µg/mL | 8 µg/mL |  |  |
| C9-Arg-Thr-Dab-Cys-Dab-Phe-Thr-Arg-Dab-Cys [Analog 27] | 64 µg/mL | 8 µg/mL | 16 µg/mL |  |
| C9-Arg-Thr-Dab-Cys-Dab-Trp-Leu-Arg-Dab-Cys [Analog 28] | 8 µg/mL | 8 µg/mL | 4 µg/mL |  |
| C9-Arg-Thr-Dab-Ser-Dab-Phe-Leu-Arg-Dab-Ser [Analog 18] | 64 µg/mL | 64 µg/mL | 32 µg/mL |  |
| C9-Arg-Thr-His-Cys-Dab-Phe-Leu-Arg-His-Cys [Analog 31] | 128 µg/mL | 32 µg/mL | 32 µg/mL |  |
| C9-Arg-Thr-Lys-Cys-Dab-Phe-Leu-Arg-Lys-Cys [Analog 32] | 32 µg/mL | 16 µg/mL | 8 µg/mL |  |
| C9-Arg-Thr-Orn-Cys-Dab-Phe-Leu-Arg-Orn-Cys [Analog 34] | 32 µg/mL | 16 µg/mL | 8 µg/mL |  |
| C9-Dab-Thr-Dab-Cys-Dab-Phe-Met(O)-Dab-Dab-Cys [Analog 20] | > 32 µg/mL |  | > 32 µg/mL |  |
| C9-Dab-Thr-Dab-Cys-Dab-Phe-Met-Dab-Dab-Cys [Analog 19] | 32 µg/mL | 16 µg/mL | 4 µg/mL |  |
| C9-Dab[(C=NH)NH2]-Thr-Dab-Cys-Dab-Phe-Leu-Dab[(C=NH)NH2]-Dab-Cys [Analog 15] | > 32 µg/mL | 8 µg/mL | 4 µg/mL |  |
| C9-Dap[(C=NH)NH2]-Thr-Dab-Cys-Dab-Phe-Leu-Dap[(C=NH)NH2]-Dab-Cys [Analog 14] | 16 µg/mL | 16 µg/mL | 2 µg/mL |  |
| C9-Lys-Thr-Dab-Cys-Dab-Phe-Leu-Lys-Dab-Cys [Analog 33] | 128 µg/mL | 32 µg/mL | 16 µg/mL |  |
| C9-Orn-Thr-Dab-Cys-Dab-Phe-Leu-Orn-Dab-Cys [Analog 35] | 64 µg/mL | 16 µg/mL | 16 µg/mL |  |
